# Tests used:
# diaphorase (DI) = assay: Michaelis constant Km and rate constant kcat of the enzymatic reaction using the electron mediator as a substrate (cyclic voltammetry in a solution containing NADH and DI); format: biochemical, Bacillus stearothermophilus; conditions: for ten times Km: 10 x Km of the electron mediator for DI, read-out: ten times the determined Km; for Km / kcat: electron mediator as substrate of DI, solution containing sufficient amounts of NADH and DI
# Text: GDH (EC1. 1. 1. 47) derived from Bacillus sp. was used as GDH, and DI(EC. 1. 6. 99. −) derived from Bacillus stearothermophilus was used as DI. Both were purchased from Amano Enzyme Inc. (Japan) and directly used without further purification. NADH, poly-L-lycine (PLL, Mw=about 93,800), and sodium polyacrylate (PAANa, Mw=about 240,000) were purchased from Sigma-Aldrich Co. VK3 was purchased from Nacalai Tesque, Inc. (Japan).
# Then, the method for measuring the Michaelis constant Km and rate constant kcat of the enzymatic reaction using the electron mediator as a substrate is described.
# The following electrochemical equation is established between the Michaelis constant Km and rate constant kcat (R. Matsumoto et al, J. Electroanal. Chem. 535 (2002)37).
# wherein Is^lim is the current value of a flat portion of a curve obtained by cyclic voltammetry, nM is the number of electrons of the electron mediator, ns is the number of electrons of the substrate, F is the Faraday constant, A is the electrode surface area, DM is the diffusion constant of the substrate, [E] is the enzyme concentration, and [M]* is the concentration of the electron mediator.
# [1] = Redox potential of the electron mediator by cyclic voltammetry in solution; format: physicochemical
# [2] = Cyclic voltammetry of the GC bio-anode with immobilized VK3, no glucose; format: physicochemical; conditions: immobilized VK3 on GC bio-anode; 0.1 M phosphate buffer pH 7.0, glucose absent; vs. Ag|AgCl
# Protocol: The surface of a glassy carbon (GC) electrode of 3 mm in diameter which was purchased from BAS Inc. was polished with alumina powder having a particle diameter of 0.05 μm and washed with distilled water. Then, GDH, NADH, DI, and VK3 were immobilized on the GC electrode by a polyion complex method using electrostatic interaction between PAAcNa as polyanion and poly-L-lycine (PLL) as polycation according to the following procedures.
# On the GC electrode, 10 μl of an aqueous PLL solution (2% (w/v)), 8 μl of a GDH solution (1 U/μl in a 0.1 M phosphate buffer solution (NaH2PO4 buffer solution) (pH 7.0)), 8 μl of a DI solution (10 U/μl in a phosphate buffer solution), 2 μl of a NADH solution (0.9 μmol/μl in a phosphate buffer solution), 4 μl of a VK3 solution (0.29 M in acetone), and 4 μl of an aqueous PAAcNa solution (0.066% (w/v)) were added in that order. After each of the addition steps, drying was performed at 40° C. for 10 minutes. Before electrochemical measurement, the GC electrode (referred to as a “GC bio-anode” hereinafter) on which an immobilized layer had been formed as described above was rinsed with distilled water for 5 minutes.
# Cyclic voltammetry (CV) was performed using the GC bio-anode as a working electrode. […]
SMILES,ten times Km (diaphorase (DI)) [µM],Km (diaphorase (DI)) [µM],kcat (diaphorase (DI)) [s⁻¹],E^o′ vs Ag|AgCl [1],middle point potential of oxidation and reduction waves [2] [V]
"NC1=C(C(=O)O)C(=O)c2ccccc2C1=O [ACNQ, 2-amino-3-carboxy-1,4-naphthoquinone]",20,2,400,−0.26,
"NC1=CC(=O)c2ccccc2C1=O [ANQ, 2-amino-1,4-naphthoquinone]",360,36,310,−0.35,
"CC1=CC(=O)c2ccccc2C1=O [VK3, 2-methyl-1,4-naphthoquinone]",4,0.4,630,−0.22,−0.17
